Values after ≈ are worked out from the molar mass of the structure shown.
Assays:
Experiment in all cases: in vitro antibacterial activity (MIC), agar dilution
Type in all cases: cell-based
[1] = system: Haemophilis Influenzae DILL AMP R; conditions: organism code WW; BHI agar, 35-37° C., 20 to 24 hours; unit assumed
Protocol: (§1) Representative compounds of the present invention were assayed in vitro for antibacterial activity as follows: Twelve petri dishes containing successive aqueous dilutions of the test compound mixed with 10 mL of sterilized Brain Heart Infusion (BHI) agar (Difco 0418-01-5) were prepared. Each plate was inoculated with 1:100 (or 1:10 for slow-growing strains, such as Micrococcus and Streptococcus) dilutions of up to 32 different microorganisms, using a Steers replicator block. […] In addition, a control plate, using BHI agar containing no test compound, was prepared and incubated at the beginning and end of each test.
(§2) An additional plate containing a compound having known susceptibility patterns for the organisms being tested and belonging to the same antibiotic class as the test compound was also prepared and incubated as a further control, as well as to provide test-to-test comparability.
(§3) After incubation, each plate was visually inspected. The minimum inhibitory concentration (MIC) was defined as the lowest concentration of drug yielding no growth, a slight haze, or sparsely isolated colonies on the inoculum spot as compared to the growth control.

[2] = system: Micrococcus luteus ATCC 4698; conditions: organism code PP; BHI agar, 35-37° C., 20 to 24 hours; unit assumed
Protocol: as §1, §2, §3

[3] = system: Staphylococcus aureus CMX 553; conditions: organism code FF; BHI agar, 35-37° C., 20 to 24 hours; unit assumed
Protocol: as §1, §2, §3

[4] = system: Staphylococcus aureus A5177; conditions: organism code BB; BHI agar, 35-37° C., 20 to 24 hours; unit assumed
Protocol: as §1, §2, §3

[5] = system: Streptococcus bovis A-5169; conditions: organism code JJ; BHI agar, 35-37° C., 20 to 24 hours; unit assumed
Protocol: as §1, §2, §3

[6] = system: Staphylococcus aureus A-5278; conditions: organism code CC; BHI agar, 35-37° C., 20 to 24 hours; unit assumed
Protocol: as §1, §2, §3

[7] = system: Streptococcus pyogenes PIU 2548; conditions: organism code NN; BHI agar, 35-37° C., 20 to 24 hours; unit assumed
Protocol: as §1, §2, §3

[8] = system: Streptococcus agalactiae CMX 508; conditions: organism code KK; BHI agar, 35-37° C., 20 to 24 hours; unit assumed
Protocol: as §1, §2, §3

[9] = system: Staphylococcus aureus NCTC10649M; conditions: organism code EE; BHI agar, 35-37° C., 20 to 24 hours; unit assumed
Protocol: as §1, §2, §3

[10] = system: Staphylococcus epidermidis 3519; conditions: organism code HH; BHI agar, 35-37° C., 20 to 24 hours; unit assumed
Protocol: as §1, §2, §3

[11] = system: Streptococcus Pneumonia 5649; conditions: organism code ZZA; BHI agar, 35-37° C., 20 to 24 hours; unit assumed
Protocol: as §1, §2, §3

Candida albicans CCH 442 = conditions: organism code TT; BHI agar, 35-37° C., 20 to 24 hours; unit assumed
Protocol: as §1, §2, §3

[12] = system: Streptococcus pyogenes 930; conditions: organism code MM; BHI agar, 35-37° C., 20 to 24 hours; unit assumed
Protocol: as §1, §2, §3

[13] = system: Micrococcus luteus ATCC 9341; conditions: organism code OO; BHI agar, 35-37° C., 20 to 24 hours; unit assumed
Protocol: as §1, §2, §3

Escherichia coli JUHL = conditions: organism code QQ; BHI agar, 35-37° C., 20 to 24 hours; unit assumed
Protocol: as §1, §2, §3

[14] = system: Staphylococcus aureus ATCC 6538P; conditions: organism code AA; BHI agar, 35-37° C., 20 to 24 hours; unit assumed
Protocol: as §1, §2, §3

[15] = system: Streptococcus Pneumonia 5979; conditions: organism code ZZ; BHI agar, 35-37° C., 20 to 24 hours; unit assumed
Protocol: as §1, §2, §3

[16] = system: Streptococcus Pneumonia ATCC6303; conditions: organism code XX; BHI agar, 35-37° C., 20 to 24 hours; unit assumed
Protocol: as §1, §2, §3

[17] = system: Nocardia Asteroides ATCC9970; conditions: organism code VV; BHI agar, 35-37° C., 20 to 24 hours; unit assumed
Protocol: as §1, §2, §3

[18] = system: Streptococcus pyogenes EES61; conditions: organism code LL; BHI agar, 35-37° C., 20 to 24 hours; unit assumed
Protocol: as §1, §2, §3

[19] = system: Mycobacterium smegmatis ATCC 114; conditions: organism code UU; BHI agar, 35-37° C., 20 to 24 hours; unit assumed
Protocol: as §1, §2, §3

[20] = system: Streptococcus Pneumonia GYR 1171; conditions: organism code YY; BHI agar, 35-37° C., 20 to 24 hours; unit assumed
Protocol: as §1, §2, §3

Escherichia coli SS = conditions: organism code RR; BHI agar, 35-37° C., 20 to 24 hours; unit assumed
Protocol: as §1, §2, §3

[21] = system: Staphylococcus aureus CMX 642A; conditions: organism code DD; BHI agar, 35-37° C., 20 to 24 hours; unit assumed
Protocol: as §1, §2, §3

Escherichia coli DC-2 = conditions: organism code SS; BHI agar, 35-37° C., 20 to 24 hours; unit assumed
Protocol: as §1, §2, §3

[22] = system: Staphylococcus aureus 1775; conditions: organism code GG; BHI agar, 35-37° C., 20 to 24 hours; unit assumed
Protocol: as §1, §2, §3

CC[C@H]1OC(=O)[C@H](C)C(=O)[C@H](C)[C@@H](O[C@@H]2O[C@H](C)C[C@H](N(C)C)[C@H]2O)[C@](C)(OCC#Cc2ccc(-c3cccc(OC)c3)s2)C[C@@H](C)C(=O)[C@H](C)[C@H]2NC(=O)O[C@@]21C [Example 14]
MIC [1]: 2 µg/mL (≈ 2.42 µM)
MIC [2]: 0.02 µg/mL (≈ 0.0242 µM)
MIC [3]: 0.1 µg/mL (≈ 0.121 µM)
MIC [4]: 0.1 µg/mL (≈ 0.121 µM)
MIC [5]: ≤ 0.005 µg/mL
MIC [6]: > 100 µg/mL
MIC [7]: 0.1 µg/mL (≈ 0.121 µM)
MIC [8]: 0.01 µg/mL (≈ 0.0121 µM)
MIC [9]: 0.1 µg/mL (≈ 0.121 µM)
MIC [10]: 0.1 µg/mL (≈ 0.121 µM)
MIC [11]: 0.25 µg/mL (≈ 0.303 µM)
MIC (Candida albicans CCH 442): > 100 µg/mL
MIC [12]: 1.56 µg/mL (≈ 1.89 µM)
MIC [13]: 0.01 µg/mL (≈ 0.0121 µM)
MIC (Escherichia coli JUHL): > 100 µg/mL
MIC [14]: 0.1 µg/mL (≈ 0.121 µM)
MIC [15]: 1 µg/mL (≈ 1.21 µM)
MIC [16]: 0.03 µg/mL (≈ 0.0364 µM)
MIC [17]: 0.1 µg/mL (≈ 0.121 µM)
MIC [18]: 0.01 µg/mL (≈ 0.0121 µM)
MIC [19]: 0.2 µg/mL (≈ 0.242 µM)
MIC [20]: 0.03 µg/mL (≈ 0.0364 µM)
MIC (Escherichia coli SS): 0.39 µg/mL (≈ 0.473 µM)
MIC [21]: 0.1 µg/mL (≈ 0.121 µM)
MIC (Escherichia coli DC-2): > 100 µg/mL
MIC [22]: 50 µg/mL (≈ 60.6 µM)

CC[C@H]1OC(=O)[C@H](C)C(=O)[C@H](C)[C@@H](O[C@@H]2O[C@H](C)C[C@H](N(C)C)[C@H]2O)[C@](C)(OCC#Cc2ccc(-c3cccc(F)c3)s2)C[C@@H](C)C(=O)[C@H](C)[C@H]2NC(=O)O[C@@]21C [Example 15]
MIC [1]: 2 µg/mL (≈ 2.46 µM)
MIC [2]: 0.1 µg/mL (≈ 0.123 µM)
MIC [3]: 0.1 µg/mL (≈ 0.123 µM)
MIC [4]: 0.1 µg/mL (≈ 0.123 µM)
MIC [5]: 0.05 µg/mL (≈ 0.0615 µM)
MIC [6]: 50 µg/mL (≈ 61.5 µM)
MIC [7]: 0.2 µg/mL (≈ 0.246 µM)
MIC [8]: 0.05 µg/mL (≈ 0.0615 µM)
MIC [9]: 0.2 µg/mL (≈ 0.246 µM)
MIC [10]: 0.2 µg/mL (≈ 0.246 µM)
MIC [11]: 0.25 µg/mL (≈ 0.308 µM)
MIC (Candida albicans CCH 442): > 100 µg/mL
MIC [12]: 3.1 µg/mL (≈ 3.81 µM)
MIC [13]: 0.05 µg/mL (≈ 0.0615 µM)
MIC (Escherichia coli JUHL): > 100 µg/mL
MIC [14]: 0.1 µg/mL (≈ 0.123 µM)
MIC [15]: 0.25 µg/mL (≈ 0.308 µM)
MIC [16]: 0.015 µg/mL (≈ 0.0185 µM)
MIC [17]: 0.2 µg/mL (≈ 0.246 µM)
MIC [18]: 0.05 µg/mL (≈ 0.0615 µM)
MIC [19]: 0.39 µg/mL (≈ 0.48 µM)
MIC [20]: 0.015 µg/mL (≈ 0.0185 µM)
MIC (Escherichia coli SS): 0.39 µg/mL (≈ 0.48 µM)
MIC [21]: 0.2 µg/mL (≈ 0.246 µM)
MIC (Escherichia coli DC-2): > 100 µg/mL
MIC [22]: 50 µg/mL (≈ 61.5 µM)

From patent publication US6054435A, “6-O-substituted macrolides having antibacterial activity” (priority 1999, dated 2000)
